According to ChEMBL document CHEMBL1201862, “PubChem BioAssay data set” (2004):
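The compound was tested at five concentrations on cells cultured in 96-well plates, with a 48-hour exposure period. GI50 = concentration required for 50% inhibition of growth.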 Activity calls are given as the source filed them. No stated cut-off is given here; in the data, active = GI50 up to about 1.1 µM and inactive = higher.

Assays:
Experiment in all cases: DTP human tumour cell line panel, 48 h
[1] = tested on: SK-MEL-28
[2] = tested on: CAKI-1
[3] = tested on: K562
[4] = tested on: KM12
[5] = tested on: RPMI-8226
[6] = tested on: SF-539
[7] = tested on: MOLT-4
[8] = tested on: 786-0
[9] = tested on: HT-29
[10] = tested on: U-251
[11] = tested on: HOP-62
[12] = tested on: NCI-H226
[13] = tested on: EKVX
[14] = tested on: SNB-19
[15] = tested on: SN12C
[16] = tested on: UACC-62
[17] = tested on: Malme-3M
[18] = tested on: HCT-15
[19] = tested on: NCI/ADR-RES
[20] = tested on: UACC-257

SMILES	GI50 [1]	GI50 [2]	GI50 [3]	GI50 [4]	GI50 [5]	GI50 [6]	GI50 [7]	GI50 [8]	GI50 [9]	GI50 [10]	GI50 [11]	GI50 [12]	GI50 [13]	GI50 [14]	GI50 [15]	GI50 [16]	GI50 [17]	GI50 [18] [µM]	GI50 [19]	GI50 [20]
CSC1=NN(C(C)=O)C(C(OC(C)=O)C(OC(C)=O)C(OC(C)=O)C(COC(C)=O)OC(C)=O)S1 (stereo not given)	> 100 µM (inactive)	> 100 µM (inactive)	> 100 µM (inactive)	> 100 µM (inactive)	> 100 µM (inactive)	> 100 µM (inactive)	> 100 µM (inactive)	> 100 µM (inactive)	> 100 µM (inactive)	> 100 µM (inactive)	> 100 µM (inactive)	> 100 µM (inactive)	> 100 µM (inactive)	> 100 µM (inactive)	> 100 µM (inactive)	> 100 µM (inactive)	> 100 µM (inactive)	> 100	> 100 µM (inactive)	> 100 µM (inactive)
CCOC(=O)C1CCCCN1CCc1c[nH]c2ccccc12 (stereo not given)	> 100 µM (inactive)	> 100 µM (inactive)	72.3 µM (inactive)	> 100 µM (inactive)	84.7 µM (inactive)	> 100 µM (inactive)	25.1 µM (inactive)	> 100 µM (inactive)	50.9 µM (inactive)	> 100 µM (inactive)	> 100 µM (inactive)	71.6 µM (inactive)	> 100 µM (inactive)	> 100 µM (inactive)	> 100 µM (inactive)	> 100 µM (inactive)	> 100 µM (inactive)	93.1	73.1 µM (inactive)	> 100 µM (inactive)
CCCCn1cnnc1NS(=O)(=O)c1cc(C)c(Cl)cc1SCC(=O)O	> 10 µM (inactive)	> 10 µM (inactive)	> 10 µM (inactive)	> 10 µM (inactive)	> 10 µM (inactive)	> 10 µM (inactive)	> 10 µM (inactive)	> 10 µM (inactive)	> 10 µM (inactive)	> 10 µM (inactive)	> 10 µM (inactive)	> 10 µM (inactive)	> 10 µM (inactive)	> 10 µM (inactive)	> 10 µM (inactive)	> 10 µM (inactive)	> 10 µM (inactive)	> 10	> 10 µM (inactive)	> 10 µM (inactive)
CO/C(=N\N=C\c1cccc(C(F)(F)F)c1)c1ccncc1	24.3 µM (inactive)	1.8 µM (inactive)	3.94 µM (inactive)	5.19 µM (inactive)	2.37 µM (inactive)	4.67 µM (inactive)	5.21 µM (inactive)	5.77 µM (inactive)	4.62 µM (inactive)	5.14 µM (inactive)	2.93 µM (inactive)	3.56 µM (inactive)	13.8 µM (inactive)	9.08 µM (inactive)	3.67 µM (inactive)	4.28 µM (inactive)	4.6 µM (inactive)	2.45	1.82 µM (inactive)	14 µM (inactive)
CCOC(=O)c1c(N2CCCC2)ncn(Cc2ccccc2)c1=S	> 100 µM (inactive)	30.6 µM (inactive)	87.5 µM (inactive)	> 100 µM (inactive)	> 100 µM (inactive)	> 100 µM (inactive)	92.3 µM (inactive)	> 100 µM (inactive)	> 100 µM (inactive)	> 100 µM (inactive)	> 100 µM (inactive)	> 100 µM (inactive)	> 100 µM (inactive)	> 100 µM (inactive)	> 100 µM (inactive)	63 µM (inactive)	> 100 µM (inactive)	> 100	> 100 µM (inactive)	> 100 µM (inactive)
COC(=O)C1c2c(c3ccccc3n2C(=O)OC)CCN2CCC1C(S(=O)(=O)c1ccccc1)C2=O (stereo not given)	> 100 µM (inactive)	> 100 µM (inactive)	> 100 µM (inactive)	> 100 µM (inactive)	30.6 µM (inactive)	> 100 µM (inactive)	40.5 µM (inactive)	> 100 µM (inactive)	> 100 µM (inactive)	> 100 µM (inactive)	70.3 µM (inactive)	24 µM (inactive)	> 100 µM (inactive)	94.6 µM (inactive)	> 100 µM (inactive)	> 100 µM (inactive)	> 100 µM (inactive)	> 100	> 100 µM (inactive)	> 100 µM (inactive)
O=C(c1c(F)c(F)c(F)c(F)c1F)n1c(O)nc2ccccc21	15 µM (inactive)	5.82 µM (inactive)	3.51 µM (inactive)	1.54 µM (inactive)	3.03 µM (inactive)	13.6 µM (inactive)	4.47 µM (inactive)	10.8 µM (inactive)	6.28 µM (inactive)	12.5 µM (inactive)	17.2 µM (inactive)	17.3 µM (inactive)	13.9 µM (inactive)	14.9 µM (inactive)	14.1 µM (inactive)	12.1 µM (inactive)	14.8 µM (inactive)	5.06	22 µM (inactive)	5.69 µM (inactive)
C[C@@H]1C[C@H]2CC[C@H](O2)[C@H](C)C(=O)O[C@@H](C)C[C@@H]2CC[C@@H](O2)[C@@H](C)C(=O)O[C@H](C)C[C@H]2CC[C@H](O2)[C@H](C)C(=O)O[C@@H](C)C[C@@H]2CC[C@@H](O2)[C@@H](C)C(=O)O1	1.96 µM (inactive)	0.826 µM (active)	0.228 µM (active)	0.256 µM (active)	0.0769 µM (active)	1.58 µM (inactive)	0.36 µM (active)	0.445 µM (active)	0.237 µM (active)	0.366 µM (active)	0.319 µM (active)	0.436 µM (active)	0.283 µM (active)	0.366 µM (active)	0.366 µM (active)	0.351 µM (active)	0.199 µM (active)	0.646	2.17 µM (inactive)	0.242 µM (active)
